The numbers were not newly measured in article PMC6958329, “New ^55Co-labeled Albumin-Binding Folate Derivatives as Potential PET Agents for Folate Receptor Imaging” (Pharmaceuticals, 2019), which cites them from elsewhere.

This data set relates to tumor. Further details: method as in PMID 27145400. Particulars: previously reported, cited from earlier work.

The structures appear in SMILES notation. Read-outs that look alike come from different tables or passages of the source.

As for `Nc1nc2ncc(CNc3ccc(C(=O)N[C@@H](CCC(=O)NC(CCCCNC(=O)CCC(C(=O)O)N4CCN(CC(=O)O)CCN(CC(=O)O)CC4)C(=O)NC(CCCCNC(=O)CCCc4ccc(I)cc4)C(=O)O)C(=O)O)cc3)nc2c(=O)[nH]1.[64Cu]` (stereo partly drawn) [[^64Cu]Cu-rf42], the tumor uptake (4 h post-injection) is 14.5% ± 1.0% and the tumor uptake (24 h post-injection) is 16% ± 4%. As to `Nc1nc2ncc(CNc3ccc(C(=O)N[C@@H](CCC(=O)NC(CCCCNC(=O)CCC(C(=O)O)N4CCN(CC(=O)O)CCN(CC(=O)O)CC4)C(=O)NC(CCCCNC(=O)CCCc4ccc(I)cc4)C(=O)O)C(=O)O)cc3)nc2c(=O)[nH]1.[68Ga]` (stereo partly drawn) [[^68Ga]Ga-rf42], under “4 h post-injection”, the tumor uptake was 12% ± 2%.
